Patent publication US20230085307A1, “PYRIDAZINONE COMPOUND AND HERBICIDE” (NISSAN CHEMICAL CORPORATION, priority 2019, published 2023)

What was measured:
[1] = test system: barnyard grass; test: Test Example 5: herbicidal effect by foliage application, plastic box (Table 20, symbol H); type: in vivo, barnyard grass (Echinochloa crus-galli); conditions: 320 g/ha; for H: barnyard grass, herbicidal effect grade: foliage application, three weeks after application; for herbicidal effect on H: barnyard grass (evaluation grade 0-5): foliage application after 14-day growth, evaluated three weeks after application
How it was run: (§1)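 Plants sown in sterilized diluvial soil and grown 14 days in a greenhouse at 25° C to 30° C, then sprayed on the foliage with the compound's emulsion diluted in water to a predetermined herbicide amount. Injury to weeds and crops scored three weeks after application on a visual rating scale.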

[2] = test system: velvetleaf; test: Test Example 4: herbicidal effect by soil treatment (Table 19, symbol M); type: in vivo, velvetleaf (Abutilon theophrasti); conditions: amount of applied herbicide 320 g/ha
How it was run: (§2)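 Three weeks of greenhouse growth at 25° C. to 30° C. followed a uniform surface spray of water-diluted emulsion at a predetermined herbicide amount. Seeds had been sown beforehand under about 1.5 cm of sterilized diluvial soil. Grading followed criteria set out in an earlier test.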

[3] = test system: green foxtail; test: Test Example 5: herbicidal effect by foliage application, plastic box (Table 20, symbol G); type: in vivo, green foxtail (Setaria viridis); conditions: 320 g/ha; for G: green foxtail, herbicidal effect grade: foliage application, three weeks after application; for herbicidal effect on G: green foxtail (evaluation grade 0-5): foliage application after 14-day growth, evaluated three weeks after application
How it was run: as §1

[4] = test system: redroot pigweed; test: Test Example 4: herbicidal effect by soil treatment (Table 19, symbol N); type: in vivo, redroot pigweed (Amaranthus retroflexus); conditions: amount of applied herbicide 320 g/ha
How it was run: as §2

[5] = test system: barnyard grass; test: Test Example 4: herbicidal effect by soil treatment (Table 19, symbol H); type: in vivo, barnyard grass (Echinochloa crus-galli); conditions: amount of applied herbicide 320 g/ha
How it was run: as §2

[6] = test system: windgrass; test: Test Example 4: herbicidal effect by soil treatment (Table 19, symbol L); type: in vivo, windgrass (Apera spica-venti); conditions: amount of applied herbicide 320 g/ha
How it was run: as §2

[7] = test system: oval-leafed pondweed; test: Test Example 1: herbicidal activity, application before weed generation under submerged conditions (Table 16, symbol C); type: in vivo, oval-leafed pondweed (Monochoria vaginalis); conditions: amount of applied herbicide 320 g/ha
How it was run: (§3)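 Submerged Wagner pots (alluvial soil, 4 cm water) sown with weed seeds and planted with 2.5-leaf rice seedlings; emulsifiable concentrate diluted in water applied to water surface on sowing day. Held in greenhouse at 25-30 °C; injury scored 0-5 by herbicidal rate after three weeks.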

[8] = test system: southern crabgrass; test: Test Example 4: herbicidal effect by soil treatment (Table 19, symbol F); type: in vivo, southern crabgrass (Digitaria ciliaris); conditions: amount of applied herbicide 320 g/ha
How it was run: as §2

[9] = test system: persian speedwell; test: Test Example 5: herbicidal effect by foliage application, plastic box (Table 20, symbol R); type: in vivo, Persian speedwell (Veronica persica); conditions: 320 g/ha; for R: persian speedwell, herbicidal effect grade: foliage application, three weeks after application; for herbicidal effect on R: persian speedwell (evaluation grade 0-5): foliage application after 14-day growth, evaluated three weeks after application
How it was run: as §1

[10] = test system: wild oat; test: Test Example 5: herbicidal effect by foliage application, plastic box (Table 20, symbol I); type: in vivo, wild oat (Avena fatua); conditions: 320 g/ha; for I: wild oat, herbicidal effect grade: foliage application, three weeks after application; for herbicidal effect on I: wild oat (evaluation grade 0-5): foliage application after 14-day growth, evaluated three weeks after application
How it was run: as §1

[11] = test system: lambsquarters; test: Test Example 5: herbicidal effect by foliage application, plastic box (Table 20, symbol O); type: in vivo, lambsquarters (Chenopodium album); conditions: 320 g/ha; for O: lambsquarters, herbicidal effect grade: foliage application, three weeks after application; for herbicidal effect on O: lambsquarters (evaluation grade 0-5): foliage application after 14-day growth, evaluated three weeks after application
How it was run: as §1

[12] = test system: green foxtail; test: Test Example 4: herbicidal effect by soil treatment (Table 19, symbol G); type: in vivo, green foxtail (Setaria viridis); conditions: amount of applied herbicide 320 g/ha
How it was run: as §2

[13] = test system: windgrass; test: Test Example 5: herbicidal effect by foliage application, plastic box (Table 20, symbol L); type: in vivo, windgrass (Apera spica-venti); conditions: 320 g/ha; for L: windgrass, herbicidal effect grade: foliage application, three weeks after application; for herbicidal effect on L: windgrass (evaluation grade 0-5): foliage application after 14-day growth, evaluated three weeks after application
How it was run: as §1

[14] = test system: Japanese bulrush; test: Test Example 1: herbicidal activity, application before weed generation under submerged conditions (Table 16, symbol B); type: in vivo, Japanese bulrush (Schoenoplectus juncoides); conditions: amount of applied herbicide 320 g/ha
How it was run: as §3

[15] = test system: rice flat sedge; test: Test Example 3: herbicidal effect by foliage application, Wagner pot (Table 18, symbol E); type: in vivo, rice flat sedge (Cyperus iria); conditions: 320 g/ha
How it was run: (§4)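 Plants were sown in alluvial soil held under 0.1–0.5 cm standing water and grown 14 days in a greenhouse at 25–30 °C. An emulsifiable formulation, water-diluted to the set dose, was then sprayed onto the foliage, and effects were scored three weeks later using previously defined criteria.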

[16] = test system: barnyard grass; test: Test Example 3: herbicidal effect by foliage application, Wagner pot (Table 18, symbol H); type: in vivo, barnyard grass (Echinochloa crus-galli); conditions: 320 g/ha
How it was run: as §4

[17] = test system: Chinese sprangletop; test: Test Example 3: herbicidal effect by foliage application, Wagner pot (Table 18, symbol D); type: in vivo, chinese sprangletop (Leptochloa chinensis); conditions: 320 g/ha
How it was run: as §4

| Compound | H: barnyard grass, herbicidal effect grade [1] | M: velvetleaf, herbicidal effect grade [2] | G: green foxtail, herbicidal effect grade [3] | N: redroot pigweed, herbicidal effect grade [4] | H: barnyard grass, herbicidal effect grade [5] | L: windgrass, herbicidal effect grade [6] | Herbicidal effect, C: oval-leafed pondweed [7] | F: southern crabgrass, herbicidal effect grade [8] | R: persian speedwell, herbicidal effect grade [9] | I: wild oat, herbicidal effect grade [10] | O: lambsquarters, herbicidal effect grade [11] | G: green foxtail, herbicidal effect grade [12] | L: windgrass, herbicidal effect grade [13] | Herbicidal effect, B: Japanese bulrush [14] | herbicidal effect on rice flat sedge (E) [15] | herbicidal effect on barnyard grass (H) [16] | herbicidal effect on Chinese sprangletop (D) [17] | herbicidal effect on H: barnyard grass (evaluation grade 0-5) [1] | Herbicidal effect by soil treatment, M: velvetleaf [2] | herbicidal effect on G: green foxtail (evaluation grade 0-5) [3] | further results |
| --- | --- | --- | --- | --- | --- | --- | --- | --- | --- | --- | --- | --- | --- | --- | --- | --- | --- | --- | --- | --- | --- |
| COc1ccccc1-c1sc2cc(OCC3CC3)ccc2c1-c1c(O)c(C)nn(C)c1=O [3-129] | 4 (Herbicidal rate of 70% or more and less than 90%) | 0 (Herbicidal rate of 5% or less (almost no effect)) | 5 (Herbicidal rate of 90% or more (almost completely withered)) | 5 (Herbicidal rate of 90% or more (almost completely withered)) | 4 (Herbicidal rate of 70% or more and less than 90%) | 5 (Herbicidal rate of 90% or more (almost completely withered)) | 5 (Herbicidal rate of 90% or more (almost completely withered)) | 4 (Herbicidal rate of 70% or more and less than 90%) | 5 (Herbicidal rate of 90% or more (almost completely withered)) | 3 (Herbicidal rate of 40% or more and less than 70%) | 4 (Herbicidal rate of 70% or more and less than 90%) | 5 (Herbicidal rate of 90% or more (almost completely withered)) | 5 (Herbicidal rate of 90% or more (almost completely withered)) | 5 (Herbicidal rate of 90% or more (almost completely withered)) | 5 (Herbicidal rate of 90% or more (almost completely withered)) | 5 (Herbicidal rate of 90% or more (almost completely withered)) | 4 (Herbicidal rate of 70% or more and less than 90%) |  |  |  |  |
| COc1ccccc1-c1sc2cc(OCC3CC3(F)F)ccc2c1-c1c(O)c(C)nn(C)c1=O (centres unmarked) [3-131] | 5 (Herbicidal rate of 90% or more (almost completely withered)) | 3 (Herbicidal rate of 40% or more and less than 70%) | 5 (Herbicidal rate of 90% or more (almost completely withered)) | 5 (Herbicidal rate of 90% or more (almost completely withered)) | 2 (Herbicidal rate of 20% or more and less than 40%) | 3 (Herbicidal rate of 40% or more and less than 70%) | 5 (Herbicidal rate of 90% or more (almost completely withered)) | 3 (Herbicidal rate of 40% or more and less than 70%) | 5 (Herbicidal rate of 90% or more (almost completely withered)) | 5 (Herbicidal rate of 90% or more (almost completely withered)) | 5 (Herbicidal rate of 90% or more (almost completely withered)) | 4 (Herbicidal rate of 70% or more and less than 90%) | 5 (Herbicidal rate of 90% or more (almost completely withered)) | 5 (Herbicidal rate of 90% or more (almost completely withered)) | 5 (Herbicidal rate of 90% or more (almost completely withered)) | 5 (Herbicidal rate of 90% or more (almost completely withered)) | 3 (Herbicidal rate of 40% or more and less than 70%) |  |  |  |  |
| CCCC(=O)Oc1c(C)nn(C)c(=O)c1-c1c(-c2ccc(OC(F)(F)F)cc2)sc2cc(F)ccc12 [3-144] |  |  |  |  |  |  | 0 (Herbicidal rate of 5% or less (almost no effect)) |  |  |  |  |  |  | 3 (Herbicidal rate of 40% or more and less than 70%) | 5 (Herbicidal rate of 90% or more (almost completely withered)) | 5 (Herbicidal rate of 90% or more (almost completely withered)) | 4 (Herbicidal rate of 70% or more and less than 90%) | 4 (Herbicidal rate of 70% or more and less than 90%) | 0 (Herbicidal rate of 5% or less (almost no effect)) | 5 (Herbicidal rate of 90% or more (almost completely withered)) | Herbicidal effect by soil treatment, N: redroot pigweed [4]: 4 (Herbicidal rate of 70% or more and less than 90%); Herbicidal effect by soil treatment, H: barnyard grass [5]: 3 (Herbicidal rate of 40% or more and less than 70%); Herbicidal effect by soil treatment, L: windgrass [6]: 0 (Herbicidal rate of 5% or less (almost no effect)); Herbicidal effect by soil treatment, F: southern crabgrass [8]: 1 (Herbicidal rate of 5% or more and less than 20%); herbicidal effect on R: persian speedwell (evaluation grade 0-5) [9]: 5 (Herbicidal rate of 90% or more (almost completely withered)); herbicidal effect on I: wild oat (evaluation grade 0-5) [10]: 0 (Herbicidal rate of 5% or less (almost no effect)); herbicidal effect on O: lambsquarters (evaluation grade 0-5) [11]: 5 (Herbicidal rate of 90% or more (almost completely withered)); Herbicidal effect by soil treatment, G: green foxtail [12]: 0 (Herbicidal rate of 5% or less (almost no effect)); herbicidal effect on L: windgrass (evaluation grade 0-5) [13]: 0 (Herbicidal rate of 5% or less (almost no effect)) |
| COc1ccc2c(-c3c(OC(=O)C4CCCCC4)c(C)nn(C)c3=O)c(-c3ccccc3OC)sc2c1 [3-156] |  |  |  |  |  |  | 4 (Herbicidal rate of 70% or more and less than 90%) |  |  |  |  |  |  | 4 (Herbicidal rate of 70% or more and less than 90%) | 3 (Herbicidal rate of 40% or more and less than 70%) | 5 (Herbicidal rate of 90% or more (almost completely withered)) | 4 (Herbicidal rate of 70% or more and less than 90%) | 5 (Herbicidal rate of 90% or more (almost completely withered)) | 0 (Herbicidal rate of 5% or less (almost no effect)) | 5 (Herbicidal rate of 90% or more (almost completely withered)) | Herbicidal effect by soil treatment, N: redroot pigweed [4]: 0 (Herbicidal rate of 5% or less (almost no effect)); Herbicidal effect by soil treatment, H: barnyard grass [5]: 0 (Herbicidal rate of 5% or less (almost no effect)); Herbicidal effect by soil treatment, L: windgrass [6]: 0 (Herbicidal rate of 5% or less (almost no effect)); Herbicidal effect by soil treatment, F: southern crabgrass [8]: 0 (Herbicidal rate of 5% or less (almost no effect)); herbicidal effect on R: persian speedwell (evaluation grade 0-5) [9]: 5 (Herbicidal rate of 90% or more (almost completely withered)); herbicidal effect on I: wild oat (evaluation grade 0-5) [10]: 4 (Herbicidal rate of 70% or more and less than 90%); herbicidal effect on O: lambsquarters (evaluation grade 0-5) [11]: 4 (Herbicidal rate of 70% or more and less than 90%); Herbicidal effect by soil treatment, G: green foxtail [12]: 0 (Herbicidal rate of 5% or less (almost no effect)); herbicidal effect on L: windgrass (evaluation grade 0-5) [13]: 5 (Herbicidal rate of 90% or more (almost completely withered)) |
